{
  "source": "patent US20060122267A1",
  "about": "“Compositions and methods for attenuating mitochondria-mediated cell injury” (priority 2003, published 2006)",
  "key": {"[1]": {"test_system": "isolated adult rat cardiomyocytes", "test": "Cardiomyocyte model of ischemia-reperfusion injury, cell viability by Trypan blue exclusion", "type": "cell-based", "conditions": "for protection of cardiomyocyte viability from ischemia-reperfusion injury: 1 hour ischemia, 30 minutes reoxygenation", "protocol": "Isolated adult rat cardiomyocytes were subjected to 1 hour ischemia (anoxic, glucose free medium, pH 6.5) followed by 30 minutes reoxygenation (labeled “HR”). Cell viability was assayed by Trypan blue exclusion. […] All data are means±SEM, N>3.\nAdult rat cardiomyocytes were prepared by collagenase perfusion according to standard methods (Dai, et al. (2001) supra), yielding ˜4×10^6 cells per heart, >80% rod-shaped and viable. Incubations were in a shaking water bath at 37° C., each utilizing 5×10^5 cells in 5 mL of the KH buffers described below. For the control, cells were incubated for 2 hours in oxygenated KH buffer (95/5 O2/CO2). For ischemia-reperfusion treatment, cells were subjected to 30 minutes in oxygenated KH buffer, 1 hour in “ischemic” KH buffer (95/5 N2/CO2, pH 6.5, no glucose), and 30 minutes in oxygenated KH buffer. For the ischemia-reperfusion injury and test compound group of cells, ischemia-reperfusion injury was carried out as described above with test compound present during the 30 minute equilibration prior to ischemia-reperfusion and absent during ischemia. […] At the end of each protocol, cell viability was assayed (Trypan blue), and mitochondrial function determined (measurement of ΔΨm with the fluorescent probe TMRE, respiration with an O2 electrode, and S-nitrosothiol content by chemiluminescence and biotin-switch."}, "mitochondrial complex I": {"target": "T1, mitochondrial complex I (Rattus norvegicus, UniProt Q66HF1)", "T1 construct": "Rat heart mitochondria were isolated using differential centrifugation; from tissue; host or cells: rat heart mitochondria (male Sprague-Dawley rats)", "T1 sequence (Q66HF1 24-727, one chain of several)": "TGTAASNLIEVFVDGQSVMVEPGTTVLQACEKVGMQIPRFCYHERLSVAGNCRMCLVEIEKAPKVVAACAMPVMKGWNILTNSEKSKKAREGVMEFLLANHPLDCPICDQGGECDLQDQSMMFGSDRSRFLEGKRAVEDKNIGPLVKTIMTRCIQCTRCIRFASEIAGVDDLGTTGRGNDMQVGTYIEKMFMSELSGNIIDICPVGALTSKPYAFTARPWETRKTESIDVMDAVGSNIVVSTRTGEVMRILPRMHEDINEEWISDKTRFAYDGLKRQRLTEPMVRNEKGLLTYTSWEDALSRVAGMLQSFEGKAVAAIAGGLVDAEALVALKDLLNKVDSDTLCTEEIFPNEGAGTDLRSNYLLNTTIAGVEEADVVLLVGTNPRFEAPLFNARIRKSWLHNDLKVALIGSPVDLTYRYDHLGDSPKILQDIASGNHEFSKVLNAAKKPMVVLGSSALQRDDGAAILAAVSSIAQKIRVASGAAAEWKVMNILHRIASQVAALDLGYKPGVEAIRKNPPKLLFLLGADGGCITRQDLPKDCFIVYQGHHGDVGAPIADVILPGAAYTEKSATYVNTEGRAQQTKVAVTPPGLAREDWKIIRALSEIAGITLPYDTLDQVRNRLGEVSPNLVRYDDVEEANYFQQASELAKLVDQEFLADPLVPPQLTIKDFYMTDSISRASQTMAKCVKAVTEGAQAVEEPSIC", "test": "Complex I S-nitrosation: blue-native gel isolation followed by chemiluminescent S-nitrosothiol analysis", "type": "biochemical", "conditions": "100 μM treatment", "source_text": "Efforts to detect S-nitrosation within mitochondrial complex I itself relied on isolating the complex using a modified blue-native gel electrophoresis method, followed by chemiluminescent S-nitrosothiol analysis. […] Chemiluminescent analysis of excised gel bands gave an S-nitrosothiol profile of the gel, with four major peaks. The first of these was in a gel segment enriched in complex I.\nAssuming heart mitochondria contain ˜50 pmol complex I per mg protein (Schagger & Pfeiffer (2001) J. Biol. Chem. 276:37861-37867), it was observed that S-nitrosation plateaud at a ˜7:1 mol/mol ratio (i.e., 7 mols S-nitrosothiol per mol complex I), while maximum complex I inhibition was ˜20-25%. This apparent mis-match between the stoichiometry of S-nitrosation (7:1) and the degree of inhibition (25%) may reflect S-nitrosation of complex I on multiple subunits. […]\nChemiluminescent analysis of S-nitrosothiol content was performed on samples originating from blue-native gels, intact mitochondria and SUPEROSE™ 6 chromatography fractions, according to known methodologies (Yang, et al. (2003) Free Radic. Res. 37:1-10). […] Each sample was run in duplicate and quantified using a standard curve created with known concentrations of NaNO2."}},
  "data": [
    {"smiles": "N[C@@H](CCC(=O)N[C@@H](CSN=O)C(=O)NCC(=O)O)C(=O)O", "note": "[S-nitrosoglutathione]", "values": [
      {"measurement": "concentration required to achieve levels of protection comparable to 10-20 μM S-nitroso-2-mercaptopropylglycine", "setting": "[1]", "value": 100, "unit": "μM"},
      {"measurement": "protection of cardiomyocyte viability from ischemia-reperfusion injury", "setting": "[1]; 10 μM", "value": "no protection"},
      {"measurement": "protection of cardiomyocyte viability from ischemia-reperfusion injury", "setting": "[1]; 100 μM", "value": "significant protection"},
      {"measurement": "share of total S-nitrosothiol originating from complex I", "setting": "mitochondrial complex I", "value": "~20", "unit": "%"},
      {"measurement": "S-nitrosothiol originating from complex I", "setting": "mitochondrial complex I; per mg mitochondrial protein", "value": 350, "unit": "pmols"}
    ]}
  ]
}
